Laboratory results as given in PubChem BioAssay AID1259407 (Chemical Carcinogenesis Research Information System (CCRIS), 2018).
Calls of active or inactive are those of the source. How the calls were made is not given here.

System: CCRIS mutagenicity, Ames/micronucleus/aberration tests
Assay: CCRIS mutagenicity studies
[1] = Test System: AMES SALMONELLA TYPHIMURIUM, Strain/Indicator: TA98, Metabolic Activation: NONE, Method: PREINCUBATION
[2] = Test System: AMES SALMONELLA TYPHIMURIUM, Strain/Indicator: TA100, Metabolic Activation: NONE, Method: PREINCUBATION
[3] = Test System: AMES SALMONELLA TYPHIMURIUM, Strain/Indicator: TA102, Metabolic Activation: NONE, Method: PREINCUBATION
[4] = Test System: AMES SALMONELLA TYPHIMURIUM, Strain/Indicator: TA1535, Metabolic Activation: NONE, Method: PREINCUBATION
[5] = Test System: AMES SALMONELLA TYPHIMURIUM, Strain/Indicator: TA1537, Metabolic Activation: NONE, Method: PREINCUBATION
[6] = Test System: AMES SALMONELLA TYPHIMURIUM, Strain/Indicator: TA100, Metabolic Activation: NONE, Method: STANDARD PLATE
[7] = Test System: AMES SALMONELLA TYPHIMURIUM, Strain/Indicator: TA102, Metabolic Activation: RAT, LIVER, S-9, AROCLOR 1254, Method: PREINCUBATION

In the case of N[C@@H](CSc1c(Cl)c(Cl)c(Cl)c(Cl)c1Cl)C(=O)O, the mutagenic call [1] is reported as “inactive; negative”, the mutagenic call (Test System: AMES SALMONELLA TYPHIMURIUM, Strain/Indicator: TA98, Metabolic Activation: RAT, LIVER OR KIDNEY, MICROSOMES, Method: PREINCUBATION) is reported as “inactive; negative” and the mutagenic call [2] is reported as “inactive; negative”. The mutagenic call (Test System: AMES SALMONELLA TYPHIMURIUM, Strain/Indicator: TA100, Metabolic Activation: RAT, LIVER OR KIDNEY, MICROSOMES, Method: PREINCUBATION) was “inactive; negative”, the mutagenic call [3] was “inactive; negative” and the mutagenic call (Test System: AMES SALMONELLA TYPHIMURIUM, Strain/Indicator: TA102, Metabolic Activation: RAT, LIVER OR KIDNEY, MICROSOMES, Method: PREINCUBATION) was “inactive; negative”. The mutagenic call (Test System: AMES SALMONELLA TYPHIMURIUM, Strain/Indicator: TA2638, Metabolic Activation: NONE, Method: PREINCUBATION) was “inactive; negative” and the mutagenic call (Test System: AMES SALMONELLA TYPHIMURIUM, Strain/Indicator: TA2638, Metabolic Activation: RAT, LIVER OR KIDNEY, MICROSOMES, Method: PREINCUBATION) was “inactive; negative”.

With CCOC(=O)C1OC1(C)c1ccccc1 (stereo not drawn) the mutagenic call (End Point: IN VITRO CHROMOSOMAL ABERRATIONS, Test System: CHINESE HAMSTER OVARY CELLS, Metabolic Activation: NONE) was “active; positive; statistically significant increase, but not dose-related”, the mutagenic call (End Point: IN VITRO CHROMOSOMAL ABERRATIONS, Test System: CHINESE HAMSTER OVARY CELLS, Metabolic Activation: RAT, LIVER, S-9, AROCLOR 1254) was “active; positive” and the mutagenic call (Test System: AMES SALMONELLA TYPHIMURIUM, Strain/Indicator: TA98, Metabolic Activation: HAMSTER, LIVER, S-9, AROCLOR 1254 (10%), Method: PREINCUBATION) was “inactive; negative”. For the same compound, the mutagenic call [1] was “inactive; negative”, the mutagenic call (Test System: AMES SALMONELLA TYPHIMURIUM, Strain/Indicator: TA98, Metabolic Activation: RAT, LIVER, S-9, AROCLOR 1254 (10%), Method: PREINCUBATION) was “inactive; negative” and the mutagenic call (Test System: AMES SALMONELLA TYPHIMURIUM, Strain/Indicator: TA100, Metabolic Activation: HAMSTER, LIVER, S-9, AROCLOR 1254 (10%), Method: PREINCUBATION) was “inactive; negative”. The mutagenic call [2] was “inactive; negative”, the mutagenic call (Test System: AMES SALMONELLA TYPHIMURIUM, Strain/Indicator: TA100, Metabolic Activation: RAT, LIVER, S-9, AROCLOR 1254 (10%), Method: PREINCUBATION) was “inactive; negative” and the mutagenic call (Test System: AMES SALMONELLA TYPHIMURIUM, Strain/Indicator: TA1535, Metabolic Activation: HAMSTER, LIVER, S-9, AROCLOR 1254 (10%), Method: PREINCUBATION) was “inactive; negative”. For the same compound, the mutagenic call [4] was “inactive; negative”, the mutagenic call (Test System: AMES SALMONELLA TYPHIMURIUM, Strain/Indicator: TA1535, Metabolic Activation: RAT, LIVER, S-9, AROCLOR 1254 (10%), Method: PREINCUBATION) was “inactive; negative” and the mutagenic call (Test System: AMES SALMONELLA TYPHIMURIUM, Strain/Indicator: TA1537, Metabolic Activation: HAMSTER, LIVER, S-9, AROCLOR 1254 (10%), Method: PREINCUBATION) was “inactive; negative”. The mutagenic call [5] was “inactive; negative” and the mutagenic call (Test System: AMES SALMONELLA TYPHIMURIUM, Strain/Indicator: TA1537, Metabolic Activation: RAT, LIVER, S-9, AROCLOR 1254 (10%), Method: PREINCUBATION) was “inactive; negative”.

For CN=C([S-])N/N=C/C(C)=N/NC([S-])=NC.[Cu+2], the mutagenic call (Test System: AMES SALMONELLA TYPHIMURIUM, Strain/Indicator: TA98, Metabolic Activation: NONE, Method: STANDARD PLATE) was “inactive; negative”, the mutagenic call (Test System: AMES SALMONELLA TYPHIMURIUM, Strain/Indicator: TA98, Metabolic Activation: RAT, LIVER, S-9, AROCLOR, Method: STANDARD PLATE) was “inactive; negative” and the mutagenic call [6] was “inactive; negative”. The mutagenic call (Test System: AMES SALMONELLA TYPHIMURIUM, Strain/Indicator: TA100, Metabolic Activation: RAT, LIVER, S-9, AROCLOR, Method: STANDARD PLATE) was “inactive; negative”.

For O=c1ccc2ccccc2[nH]1, the mutagenic call [6] was “inactive; negative” and the mutagenic call (Test System: AMES SALMONELLA TYPHIMURIUM, Strain/Indicator: TA100, Metabolic Activation: RAT, LIVER, S-9, AROCLOR 1254 (10% OR 20%), Method: STANDARD PLATE) was “inactive; negative”.

CC(=O)OCN(CCCCCl)N=O was tested, and the mutagenic call (Test System: AMES SALMONELLA TYPHIMURIUM, Strain/Indicator: TA92, Metabolic Activation: NONE, Method: STANDARD PLATE) was “active; positive” and the mutagenic call (Test System: AMES SALMONELLA TYPHIMURIUM, Strain/Indicator: TA1535, Metabolic Activation: NONE, Method: STANDARD PLATE) was “active; positive”.

With CC(=O)c1ccccc1 the mutagenic call (Test System: AMES SALMONELLA TYPHIMURIUM, Strain/Indicator: TA97, Metabolic Activation: NONE, Method: PREINCUBATION) was “inactive; negative”, the mutagenic call (Test System: AMES SALMONELLA TYPHIMURIUM, Strain/Indicator: TA97, Metabolic Activation: RAT, LIVER, S-9, AROCLOR 1254, Method: PREINCUBATION) was “inactive; negative” and the mutagenic call [1] was “inactive; negative”. For the same compound, the mutagenic call (Test System: AMES SALMONELLA TYPHIMURIUM, Strain/Indicator: TA98, Metabolic Activation: RAT LIVER S-9, PHENOBARBITAL AND BETA-NAPHTHOFLAVONE, Method: PREINCUBATION) was “inactive; negative”, the mutagenic call [2] was “inactive; negative” and the mutagenic call (Test System: AMES SALMONELLA TYPHIMURIUM, Strain/Indicator: TA100, Metabolic Activation: RAT LIVER S-9, PHENOBARBITAL AND BETA-NAPHTHOFLAVONE, Method: PREINCUBATION) was “inactive; negative”. For the same compound, the mutagenic call [3] was “inactive; negative”, the mutagenic call [7] was “inactive; negative” and the mutagenic call [4] was “inactive; negative”. The mutagenic call (Test System: AMES SALMONELLA TYPHIMURIUM, Strain/Indicator: TA1535, Metabolic Activation: RAT LIVER S-9, PHENOBARBITAL AND BETA-NAPHTHOFLAVONE, Method: PREINCUBATION) was “inactive; negative”, the mutagenic call [5] was “inactive; negative” and the mutagenic call (Test System: AMES SALMONELLA TYPHIMURIUM, Strain/Indicator: TA1537, Metabolic Activation: RAT LIVER S-9, PHENOBARBITAL AND BETA-NAPHTHOFLAVONE, Method: PREINCUBATION) was “inactive; negative”. For the same compound, the mutagenic call (Test System: E.COLI, Strain/Indicator: WP2UVRA/PKM101, Metabolic Activation: NONE, Method: PREINCUBATION) was “inactive; negative” and the mutagenic call (Test System: E.COLI, Strain/Indicator: WP2UVRA/PKM101, Metabolic Activation: RAT LIVER S-9, PHENOBARBITAL AND BETA-NAPHTHOFLAVONE, Method: PREINCUBATION) was “inactive; negative”.

With NC(=O)c1cccnc1 the mutagenic call (Test System: AMES SALMONELLA TYPHIMURIUM, Strain/Indicator: TA97A, Metabolic Activation: NONE, Method: PREINCUBATION) was “inactive; negative”, the mutagenic call (Test System: AMES SALMONELLA TYPHIMURIUM, Strain/Indicator: TA97A, Metabolic Activation: RAT, LIVER, S-9, AROCLOR 1254, Method: PREINCUBATION) was “inactive; negative” and the mutagenic call [3] was “inactive; negative”. For the same compound, the mutagenic call [7] was “inactive; negative”.

With Nc1nc(OCc2ccccc2)c2[nH]cnc2n1 the mutagenic call (Test System: Mouse lymphoma, Strain/Indicator: L5178Y (tk+/tk-), Metabolic Activation: None, Method: Suspension/plate) was “active; positive” and the mutagenic call (Test System: Mouse lymphoma, Strain/Indicator: L5178Y (tk+/tk-), Metabolic Activation: Rat, Liver, S-9, Aroclor 1254, Method: Suspension/plate) was “inconclusive”.

In the case of O=C(NCc1ccccc1)C1CO1 (stereo not drawn), the mutagenic call (Test System: AMES SALMONELLA TYPHIMURIUM, Strain/Indicator: TA100, Metabolic Activation: MOUSE, LIVER, S-9, AROCLOR 1254, Method: STANDARD PLATE) is reported as “active; positive” and the mutagenic call [6] is reported as “active; positive”.

C=C(C)C(=O)OCC(OC1=CCCC1)OC1=CCCC1 was tested, and the mutagenic call (Test System: MOUSE LYMPHOMA, Strain/Indicator: L5178Y (TK+/TK-), Metabolic Activation: NONE, Method: SUSPENSION/PLATE) was “inactive; negative”.
